Results: US7728028B2, “Substituted imidazoline compounds” (Gruenenthal GmbH, priority 2005, dated 2010)

What follows are compounds tested against T1, human μ-opiate receptor (Homo sapiens, UniProt P35372) (assay: Affinity for the human μ-opiate receptor ([3H]-naloxone displacement, SPA)). Conditions: Table 2, Examples 11-161; test substance 1 μmole/l; inhibition of specific [3H]-naloxone binding; CHO-K1 membranes; read-out: μ-Opioid receptor, % inhibition [1 μM].
T1 construct: purchased PerkinElmer Life Sciences, Zaventem, Belgium RB-HOM; host or cells: CHO-K1 cells (recombinant expression; membrane preparation)
T1 sequence (P35372 whole entry): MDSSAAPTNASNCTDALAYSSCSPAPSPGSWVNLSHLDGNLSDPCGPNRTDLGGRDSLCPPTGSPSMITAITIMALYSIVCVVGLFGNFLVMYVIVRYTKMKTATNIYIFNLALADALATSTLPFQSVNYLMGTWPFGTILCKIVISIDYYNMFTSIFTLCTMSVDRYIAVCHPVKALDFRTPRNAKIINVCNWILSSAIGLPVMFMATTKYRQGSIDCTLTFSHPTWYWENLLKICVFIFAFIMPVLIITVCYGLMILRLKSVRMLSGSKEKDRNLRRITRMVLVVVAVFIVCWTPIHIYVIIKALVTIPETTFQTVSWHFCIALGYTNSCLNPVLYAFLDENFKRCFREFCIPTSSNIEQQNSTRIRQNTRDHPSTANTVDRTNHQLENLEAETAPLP
Description: Investigations on the Efficacy of the Compounds According to the Invention Method for Determining the Affinity for the Human μ-Opiate Receptor
The receptor affinity for the human μ-opiate receptor is determined in a homogeneous batch in microtiter plates. For this purpose dilution series of the substances to be tested are incubated with a receptor membrane preparation (15-40 μg protein/250 μl incubation batch) of CHO-K1 cells, which express the human μ-opiate receptor (RB-HOM receptor membrane preparation from PerkinElmer Life Sciences, Zaventem, Belgium), in the presence of 1 nmole/l of the radioactive ligand [^3H]-naloxone (NET719, PerkinElmer Life Sciences company, Zaventem, Belgium) and 1 mg WGA-SPA beads (wheat germ agglutinin SPA beads from Amersham/Pharmacia, Freiburg, Germany) in a total volume of 250 μl for 90 minutes at room temperature. 50 mmole/l of Tris-HCl supplemented with 0.06% bovine serum albumin is used as incubation buffer. In order to determine the non-specific binding, 100 μmole/l of naloxone is additionally added. After the end of the 90 minutes' incubation time the microtiter plates are centrifuged for 20 minutes at 1000 g and the radioactivity is measured in a beta counter (Microbeta-Trilux, PerkinElmer Wallac, Freiburg, Germany). The percentage displacement of the radioactive ligand from its binding to the human μ-opiate receptor at a concentration of the test substances of 1 μmole/l is determined and is given as percentage inhibition of the specific binding.

Row | Compound | inhibition at 1 µM [%]
1 | COC(=O)C1(CC(C)C)N=CN(CCc2ccccc2)C1C1CCC(C(c2ccc(Cl)cc2)N(C)C)CC1 (centres unmarked) [Example 40, 5-{4-[(4-chlorophenyl)-dimethylaminomethyl]-cyclohexyl}-4-isobutyl-1-phenethyl-4,5-dihydro-1H-imidazole-4-carboxylic acid methyl ester] | 95
2 | COC(=O)CCC1(C(=O)OC)N=CN(C2CCCCC2)C1C1CCC(C(c2ccc(Cl)cc2)N(C)C)CC1 (centres unmarked) [Example 51, 5-{4-[(4-chlorophenyl)-dimethylaminomethyl]-cyclohexyl}-1-cyclohexyl-4-(2-methoxycarbonylethyl)-4,5-dihydro-1H-imidazole-4-carboxylic acid methyl ester] | 96
3 | COC(=O)C1(CC(C)C)N=CN(CCc2ccccc2)C1CC1CCC(C(c2ccc(Cl)cc2)N(C)C)CC1 (centres unmarked) [Example 43, 5-{4-[(4-chlorophenyl)-dimethylaminomethyl]-cyclohexylmethy}-4-isobutyl-1-phenethyl-4,5-dihydro-1H-imidazole-4-carboxylic acid methyl ester] | 97
4 | COC(=O)C1(CC(C)C)N=CN(C2CCCCC2)C1CC1CCC(C(c2ccc(Cl)cc2)N(C)C)CC1 (centres unmarked) [Example 17, 5-{4-[(4-chlorophenyl)-dimethylaminomethyl]-cyclohexylmethyl}-1-cyclohexyl-4-isobutyl-4,5-dihydro-1H-imidazole-4-carboxylic acid methyl ester] | 96
5 | CCCCN1C=NC(Cc2ccc(Cl)cc2)(C(=O)OC)C1CC1CCC(C(c2ccc(Cl)cc2)N(C)C)CC1 (centres unmarked) [Example 35, 1-butyl-4-(4-chlorobenzyl)-5-{4-[(4-chlorophenyl)-dimethylaminomethyl]-cyclohexylmethyl}-4,5-dihydro-1H-imidazole-4-carboxylic acid methyl ester] | 92
6 | CCC(C)C1(C(=O)OC)N=CN(C2CCCCC2)C1CC1CCC(C(c2ccc(Cl)cc2)N(C)C)CC1 (centres unmarked) [Example 54, Methyl-4-sec-butyl-5-((4-((4-chlorophenyl)(dimethylamino)methyl)cyclohexyl)methyl)-1-cyclohexyl-4,5-dihydro-1H-imidazole-4-carboxylate] | 100
7 | COC(=O)C1(CSC)N=CN(C2CCCCC2)C1CC1CCC(C(c2ccc(Cl)cc2)N(C)C)CC1 (centres unmarked) [Example 55, 5-{4-[(4-chlorophenyl)-dimethylaminomethyl]-cyclohexylmethyl}-1-cyclohexyl-4-methylsulfanylmethyl-4,5-dihydro-1H-imidazole-4-carboxylic acid methyl ester] | 91
8 | COC(=O)CCC1(C(=O)OC)N=CN(Cc2ccccc2)C1CC1CCC(C(c2ccc(Cl)cc2)N(C)C)CC1 (centres unmarked) [Example 99, 1-benzyl-5-{4-[(4-chlorophenyl)-dimethylaminomethyl]-cyclohexylmethyl}-4-(2-methoxycarbonylethyl)-4,5-dihydro-1H-imidazole-4-carboxylic acid methyl ester] | 100
9 | COC(=O)C1(CSCc2ccccc2)N=CN(C2CCCCC2)C1CC1CCC(C(c2ccc(Cl)cc2)N(C)C)CC1 (centres unmarked) [Example 56, 4-benzylsulfanylmethyl-5-{4-[(4-chlorophenyl)-dimethylaminomethyl]-cyclohexylmethyl}-1-cyclohexyl-4,5-dihydro-1H-imidazole-4-carboxylic acid methyl ester] | 97
10 | COC(=O)C1(Cc2ccc(Cl)cc2)N=CN(C2CCCCC2)C1CC1CCC(C(c2ccc(Cl)cc2)N(C)C)CC1 (centres unmarked) [Example 18, 4-(4-chlorobenzyl)-5-{4-[(4-chlorophenyl)-dimethylaminomethyl]-cyclohexylmethyl}-1-cyclohexyl-4,5-dihydro-1H-imidazole-4-carboxylic acid methyl ester] | 90
11 | CCCCN1C=NC(CCSC)(C(=O)OC)C1CC1CCC(C(c2cccc(F)c2)N(C)C)CC1 (centres unmarked) [Example 123, 1-butyl-5-{4-[dimethylamino-(3-fluorophenyl)-methyl]-cyclohexylmethyl}-4-(2-methylsulfanylethyl)-4,5-dihydro-1H-imidazole-4-carboxylic acid methyl ester] | 98
12 | COC(=O)CCC1(C(=O)OC)N=CN(Cc2ccccc2)C1CC1CCC(C(c2cccc(F)c2)N(C)C)CC1 (centres unmarked) [Example 85, 1-benzyl-5-{4-[dimethylamino-(3-fluorophenyl)-methyl]-cyclohexylmethyl}-4-(2-methoxycarbonylethyl)-4,5-dihydro-1H-imidazole-4-carboxylic acid methyl ester] | 95
13 | CCCC1(C(=O)OC)N=CN(C2CCCCC2)C1CC1CCC(C(CCc2ccccc2)N(C)C)CC1 (centres unmarked) [Example 108, 1-cyclohexyl-5-[4-(1-dimethylamino-3-phenylpropyl)-cyclohexylmethyl]-4-propyl-4,5-dihydro-1H-imidazole-4-carboxylic acid methyl ester] | 86
14 | COC(=O)C1(C)N=CN(CCc2ccccc2)C1CC1CCC(C(c2cccc(F)c2)N(C)C)CC1 (centres unmarked) [Example 131, 5-{4-[dimethylamino-(3-fluorophenyl)-methyl]-cyclohexylmethyl}-4-methyl-1-phenethyl-4,5-dihydro-1H-imidazole-4-carboxylic acid methyl ester] | 100
15 | COC(=O)C1(CCSC)N=CN(CCc2ccccc2)C1CC1CCC(C(c2ccc(F)cc2)N(C)C)CC1 (centres unmarked) [Example 133, 5-{4-[dimethylamino-(4-fluorophenyl)-methyl]-cyclohexylmethyl}-4-(2-methylsulfanylethyl)-1-phenethyl-4,5-dihydro-1H-imidazole-4-carboxylic acid methyl ester] | 84
16 | CCCCN1C=NC(CSCc2ccccc2)(C(=O)OC)C1C1CCC(C(c2cccc(F)c2)N(C)C)CC1 (centres unmarked) [Example 67, 4-benzylsulfanylmethyl-1-butyl-5-{4-[dimethylamino-(3-fluorophenyl)-methyl]-cyclohexyl}-4,5-dihydro-1H-imidazole-4-carboxylic acid methyl ester] | 88
17 | CCCC1(C(=O)OC)N=CN(CCc2ccccc2)C1CC1CCC(C(c2ccc(F)cc2)N(C)C)CC1 (centres unmarked) [Example 132, 5-{4-[dimethylamino-(4-fluorophenyl)-methyl]-cyclohexylmethyl}-1-phenethyl-4-propyl-4,5-dihydro-1H-imidazole-4-carboxylic acid methyl ester] | 98
18 | COC(=O)CCC1(C(=O)OC)N=CN(C2CCCCC2)C1CC1CCC(C(c2ccc(F)cc2)N(C)C)CC1 (centres unmarked) [Example 151, 1-cyclohexyl-5-{4-[dimethylamino-(4-fluorophenyl)-methyl]-cyclohexylmethyl}-4-(2-methoxycarbonylethyl)-4,5-dihydro-1H-imidazole-4-carboxylic acid methyl ester] | 95
19 | CCCCN1C=NC(CCCC)(C(=O)OC)C1CC1CCC(C(c2ccc(Cl)cc2)N(C)C)CC1 (centres unmarked) [Example 36, 1,4-dibutyl-5-{4-[(4-chlorophenyl)-dimethylaminomethyl]-cyclohexylmethyl}-4,5-dihydro-1H-imidazole-4-carboxylic acid methyl ester] | 97
20 | COC(=O)C1(C)N=CN(CCc2ccccc2)C1CC1CCC(C(CCc2ccccc2)N(C)C)CC1 (centres unmarked) [Example 137, 5-[4-(1-dimethylamino-3-phenylpropyl)-cyclohexylmethyl]-4-methyl-1-phenethyl-4,5-dihydro-1H-imidazole-4-carboxylic acid methyl ester] | 61
